# How the values were obtained:
# Human EDG-2/HepG2 cells = experiment: Inhibitory activity on LPA-accelerated [3H] thymidine incorporation (cell proliferation); format: cell-based; details: 50% inhibition of LPA-induced increase of [3H] thymidine incorporation
# Excerpt: The human EDG-2 expression plasmid was introduced into HepG2 cells by electroporation. After the introduction, culturing was continued while exchanging selective media every 3 to 4 days, thereby obtaining an expressed colony. Regarding these cells, Ca-influx and cell-proliferation by LPA, level of [^3H] LPA binding and the like were inspected to select a cell line which highly expresses human EDG-2 (human EDG-2/HepG2).
# Human EDG-2/HepG2 cells suspended in 10% bovine serum-containing DMEM (Dulbecco's modified eagle medium) were plated on a 96-well plate and, on the next day, the medium was exchanged with serum-free DMEM. 24 hours later, the medium was exchanged with DMEM containing LPA or DMEM containing no LPA, cells were cultured for further 16 hours, and [^3H] thymidine was then added. After culturing for 8 hours subsequent to the addition of [^3H] thymidine, cells were washed with PBS (phosphate-buffered saline), and the amount of [^3H] thymidine incorporated into the cells were assayed by Betaplate filter counter system (Amersham Pharmacia Biotech). The difference between the amount of [^3H] thymidine incorporated in the LPA-added well and the amount of [^3H] thymidine incorporated in the well containing no LPA represents the amount of [^3H] thymidine incorporation accelerated by LPA. […] The test compounds were added immediately before the LPA addition.
# human EDG-2 = biological target: T1, human EDG-2 (Homo sapiens, UniProt Q92633); experiment: Inhibitory activity on LPA-induced elevation of intracellular Ca2+ level; format: cell-based; details: 50% inhibition of elevation of intracellular Ca2+ level by LPA, human EDG-2/HepG2 cells, fura-2
# T1 construct: cDNA of the cloned human EDG-2 was introduced into pEFneo, which is an animal expression vector; expressed in transfected cells; host or cells: HepG2
# Procedure, shortened: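 Stably transfected HepG2 cells loaded with fura-2/AM (45 min, room temperature) in 0.1% BSA HEPES buffer. Test compound added before LPA, and the LPA-evoked intracellular Ca2+ rise measured fluorometrically. IC50 for inhibition derived.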
# T1 sequence (Q92633 whole entry): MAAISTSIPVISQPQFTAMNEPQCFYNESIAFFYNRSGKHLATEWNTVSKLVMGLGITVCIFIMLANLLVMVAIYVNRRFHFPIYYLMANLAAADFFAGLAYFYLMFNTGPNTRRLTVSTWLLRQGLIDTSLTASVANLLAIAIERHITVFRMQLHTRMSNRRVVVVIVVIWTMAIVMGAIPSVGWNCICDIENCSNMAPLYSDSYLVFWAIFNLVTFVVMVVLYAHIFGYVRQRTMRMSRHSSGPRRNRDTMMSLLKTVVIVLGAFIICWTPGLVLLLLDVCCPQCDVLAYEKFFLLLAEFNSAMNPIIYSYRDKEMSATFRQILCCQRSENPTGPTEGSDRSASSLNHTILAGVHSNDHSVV
IC50 (Human EDG-2/HepG2 cells) [nM],IC50 (human EDG-2) [nM],Compound
100 to 300,3000 to 10000,"CCOC(=O)CSCc1ccc(-c2onc(C)c2NC(=O)OC(C)c2ccccc2Cl)cc1 (stereo not shown) [Compound 119, Ethyl 2-({4-[{4-(i [-(2-chlorophenyl)ethoxy]carbonyl}amino)-3-methyl-5-isoxazolyl]benzyl}-sulfanyl)acetate]"
100 to 300,3000 to 10000,"Cc1noc(-c2ccc(CSCCO)cc2)c1NC(=O)OC(C)c1ccccc1Cl (stereo not shown) [Compound 120, 1-(2-Chlorophenyl)ethyl N-[5-(4-{[(2-hydroxyethyl)sulfanyl]methyl}phenyl)-3-methyl-4-isoxazolyl]carbamate]"
30 to 100,3000 to 10000,"Cc1noc(-c2ccc(CSCC(=O)O)cc2)c1NC(=O)OC(C)c1ccccc1Cl (stereo not shown) [Compound 121, 2-({4-[4-({[1-(2-Chlorophenyl)ethoxy]carbonyl}amino)-3-methyl-5-isoxazolyl]benzyl}-sulfanyl)acetic acid]"
100 to 300,3000 to 10000,"C=CCSCc1ccc(-c2onc(C)c2NC(=O)OC(C)c2ccccc2Cl)cc1 (stereo not shown) [Compound 123, 1-(2-Chlorophenyl)ethyl N-(5-{4-[(allylsulfanyl)methyl]phenyl}-3-methyl-4-isoxazolyl)-carbamate]"
100 to 300,10000 to 30000,Cc1noc(-c2ccc(CSCCc3ccccc3)cc2)c1NC(=O)OC(C)c1ccccc1Cl (stereo not shown) [Compound 124]
100 to 300,10000 to 30000,"CCCCSCc1ccc(-c2onc(C)c2NC(=O)OC(C)c2ccccc2Cl)cc1 (stereo not shown) [Compound 125, 1-(2-Chlorophenyl)ethyl N-(5-{4-[(butylsulfanyl)methyl]phenyl)-3-methyl-4-isoxazolyl)-carbamate]"
10 to 30,3000 to 10000,"Cc1noc(-c2ccc(CSCCC(=O)O)cc2)c1NC(=O)OC(C)c1ccccc1Cl (stereo not shown) [Compound 126, 3-({4-[4-({[1-(2-Chlorophenyl)ethoxy]carbonyl}amino)-3-methyl-5-isoxazolyl]benzyl}-sulfanyl)propanoic acid]"
100 to 300,3000 to 10000,"COCc1cccc(-c2onc(C)c2NC(=O)OC(C)c2ccccc2Cl)c1 (stereo not shown) [Compound 128, 1-(2-Chlorophenyl)ethyl N-{5-[3-(methoxymethyl)phenyl]-3-methyl-4-isoxazolyl}carbamate]"
300 to 1000,3000 to 10000,"CCOCc1cccc(-c2onc(C)c2NC(=O)OC(C)c2ccccc2Cl)c1 (stereo not shown) [Compound 129, 1-(2-Chlorophenyl)ethyl N-{5-[3-(ethoxymethyl)phenyl]-3-methyl-4-isoxazolyl}carbamate]"
300 to 1000,3000 to 10000,"COC(=O)CSCc1cccc(-c2onc(C)c2NC(=O)OC(C)c2ccccc2Cl)c1 (stereo not shown) [Compound 130, Methyl 2-({3-[4-({[1-(2-chlorophenyl)ethoxy]carbonyl}amino)-3-methyl-5-isoxazolyl]-benzyl}sulfanyl)acetate]"
300 to 1000,3000,"CCSCc1cccc(-c2onc(C)c2NC(=O)OC(C)c2ccccc2Cl)c1 (stereo not shown) [Compound 132, 1-(2-Chlorophenyl)ethyl N-(5-{3-[(ethylsulfanyl)methyl]phenyl}-3-methyl-4-isoxazolyl)carbamate]"
100 to 300,10000,COC(=O)CS(=O)(=O)Cc1ccc(-c2onc(C)c2NC(=O)OC(C)c2ccccc2Cl)cc1 (stereo not shown) [Compound 133]
100 to 300,3000 to 10000,"COC(=O)C[S+]([O-])Cc1ccc(-c2onc(C)c2NC(=O)OC(C)c2ccccc2Cl)cc1 (stereo not shown) [Compound 134, Methyl 2-({4-[4-({[1-(2-chlorophenyl)ethoxy]carbonyl}amino)-3-methyl-5-isoxazolyl]-benzyl}sulfinyl)acetate]"
100 to 300,3000 to 10000,Cc1noc(-c2ccc(CSCC(O)CO)cc2)c1NC(=O)OC(C)c1ccccc1Cl (stereo not shown) [Compound 135]
100 to 300,3000 to 10000,"Cc1noc(-c2ccc(CSc3nc[nH]n3)cc2)c1NC(=O)OC(C)c1ccccc1Cl (stereo not shown) [Compound 136, 1-(2-Chlorophenyl)ethyl N-(3-methyl-5-{4-[(1H-1,2,4-triazol-3-ylsulfanyl)methyl]-phenyl}-4-isoxazolyl)carbamate]"
100 to 300,3000 to 10000,"Cc1noc(-c2ccc(CSc3nnnn3C)cc2)c1NC(=O)OC(C)c1ccccc1Cl (stereo not shown) [Compound 137, 1-(2-Chlorophenyl)ethyl N-[3-methyl-5-(4-{[(1-methyl-1H-1,2,3,4-tetrazol-5-yl)-sulfanyl]methyl}phenyl)-4-isoxazolyl]carbamate]"
100 to 300,3000 to 10000,CNC(=O)CSCc1ccc(-c2onc(C)c2NC(=O)OC(C)c2ccccc2Cl)cc1 (stereo not shown) [Compound 138]
30 to 100,10000,"Cc1noc(-c2ccc(CSCC(=O)NCc3ccco3)cc2)c1NC(=O)OC(C)c1ccccc1Cl (stereo not shown) [Compound 139, 1-(2-Chlorophenyl)ethyl N-(5-{4-[({2-[(2-furylmethyl)amino]-2-oxoethyl}sulfanyl)-methyl]phenyl)-3-methyl-4-isoxazolyl)carbamate]"
300 to 1000,3000 to 10000,"CCOC(=O)CSCc1cccc(-c2onc(C)c2NC(=O)OC(C)c2ccccc2Cl)c1 (stereo not shown) [Compound 140, Ethyl 2-({3-[4-({[1-(2-chlorophenyl)ethoxy]carbonyl}amino)-3-methyl-5-isoxazolyl]benzyl}-sulfanyl)acetate]"
300 to 1000,3000 to 10000,"C=CCSCc1cccc(-c2onc(C)c2NC(=O)OC(C)c2ccccc2Cl)c1 (stereo not shown) [Compound 141, 1-(2-Chlorophenyl)ethyl N-(5-{3-[(allylsulfanyl)methyl]phenyl}-3-methyl-4-isoxazolyl)-carbamate]"
300,3000 to 10000,"Cc1noc(-c2cccc(CSCCc3ccccc3)c2)c1NC(=O)OC(C)c1ccccc1Cl (stereo not shown) [Compound 142, 1-(2-Chlorophenyl)ethyl N-(3-methyl-5-{3-[(phenethylsulfanyl)methyl]phenyl}-4-isoxazolyl)-carbamate]"
100 to 300,3000 to 10000,"Cc1noc(-c2cccc(CSc3nc[nH]n3)c2)c1NC(=O)OC(C)c1ccccc1Cl (stereo not shown) [Compound 143, 1-(2-Chlorophenyl)ethyl N-(3-methyl-5-{3-[(1H-1,2,4-triazol-3-ylsulfanyl)methyl]phenyl}-4-isoxazolyl)carbamate]"
300 to 1000,3000 to 10000,"CC(=O)NCCSCc1ccc(-c2onc(C)c2NC(=O)OC(C)c2ccccc2Cl)cc1 (stereo not shown) [Compound 145, 1-(2-Chlorophenyl)ethyl N-{5-[4-({[2-(acetylamino)ethyl]sulfanyl}methyl)phenyl]-3-methyl-4-isoxazolyl}carbamate]"
30 to 300,3000 to 10000,CCc1noc(-c2ccc(CSCCC(=O)OC)cc2)c1NC(=O)OC(C)c1ccccc1Cl (stereo not shown) [Compound 146]
30 to 100,3000 to 10000,"CCc1noc(-c2ccc(CSCCC(=O)O)cc2)c1NC(=O)OC(C)c1ccccc1Cl (stereo not shown) [Compound 147, 3-({4-[4-({[1-(2-Chlorophenyl)ethoxy]carbonyl}amino)-3-ethyl-5-isoxazolyl]benzyl}-sulfanyl)propanoic acid]"
100 to 300,10000 to 30000,"Cc1noc(-c2ccc(CSC(C)C(=O)O)cc2)c1NC(=O)OC(C)c1ccccc1Cl (stereo not shown) [Compound 148, 2-({4-[4-({[1-(2-Chlorophenyl)ethoxy]carbonyl}amino)-3-methyl-5-isoxazolyl]benzyl}-sulfanyl)propanoic acid]"

# — patent publication US6964975B2, “Isoxazole and thiazole compounds and use thereof as medicine” (Kirin Beer Kabushiki Kaisha, priority 2000, dated 2005)
